We go through four compounds from PMC6953607 (Nature microbiology, 2019).

Converted amounts (≈) assume the structure as drawn.

One series relates to P. aeruginosa PA01. In words: MIC, micro-dilution broth. It counts as cell-based. A general note: Dilution methods test growth across graded concentrations, often in twofold steps.
For the next series, the system named is K. pneumoniae. Briefly: MIC, micro-dilution broth. It counts as cell-based.
A further series has as its system E. cloacae. Briefly: MIC, micro-dilution broth. It counts as cell-based. Particulars: E. cloacae ATCC 29893.
The next series deals with A. baumannii. Briefly: MIC, micro-dilution broth. The format is cell-based.
Series [1] relates to E. coli MG1655 harboring FabI variants. In words: MIC against Debio-1452-NH3-resistant colonies. It counts as cell-based.
The nature of the next series: Mouse MTD. The settings on record: IP, mice monitored 2 weeks. The format is in vivo, C57BL/6 mice.
The test system of another series is S. aureus ATCC29213. In words: MIC, micro-dilution broth. The format is cell-based.
The conditions of series [2]: open-label clinical trial ref 26; cited from earlier work.
For a further series, the system named is S. aureus. The settings on record: cited from earlier work.
The test system of another series is E. coli MG1655. Briefly: Accumulation assay, LC-MS/MS. Particulars: E. coli MG1655, 50 μM compound, up to 2 h. The format is cell-based.
In the next series the test system is E. coli. Briefly: MIC, micro-dilution broth. The settings on record: Escherichia coli, E. coli strains with intact outer membranes. It counts as cell-based.

As a reminder, the MIC is the smallest concentration in the dilution series that meets the test's criterion for growth inhibition.

For the compound `Cc1c(CN(C)C(=O)/C=C/c2cnc3c(c2)CC(NC(=O)OC(C)(C)C)C(=O)N3)oc2ccccc12` (stereo not drawn) [Compound 8], the MIC is >32 µg/mL with P. aeruginosa PA01; >32 µg/mL with K. pneumoniae (K. pneumoniae S47889); > 32 µg/mL in the series on K. pneumoniae (Klebsiella pneumoniae, BAA1705, K. pneumoniae BAA-1705); >32 µg/mL in the series with E. cloacae; >32 µg/mL against A. baumannii (A. baumannii W41979); > 32 µg/mL in the series with A. baumannii (Acinetobacter baumannii, A. baumannii F19521).
As for `Oc1cc(Cl)ccc1Oc1ccc(Cl)cc1Cl` [Triclosan], the cross-resistance result in series [1] (A116V mutants resistant to Debio-1452-NH3) is recorded as “no cross-resistance”; in series [1] (G148S mutants resistant to Debio-1452-NH3), “minimal cross-resistance”.
For `Cc1c(CN(C)C(=O)/C=C/c2cnc3c(c2)CC(CCN)C(=O)N3)oc2ccccc12.Cl` (stereo not drawn) [Compound 3], the “well tolerated single dose” value in “Mouse MTD” worked out at 100 mg/kg.
Take `Cc1c(CN(C)C(=O)/C=C/c2cnc3c(c2)CCC(=O)N3)oc2ccccc12` [Debio-1452]: the minimum inhibitory concentration (MIC) against P. aeruginosa PA01 is >32 µg/mL; with S. aureus ATCC29213 (S. aureus ATCC 29213), 0.008 µg/mL (≈ 0.0213 µM); against K. pneumoniae (K. pneumoniae BAA-1705), >32 µg/mL; against K. pneumoniae (K. pneumoniae S47889), >32 µg/mL; against E. cloacae, >32 µg/mL; against E. coli it was > 32 µg/mL. The MIC with A. baumannii (A. baumannii F19521) and against A. baumannii (A. baumannii W41979) was >32 µg/mL in each case. Besides, the “fold increase in MIC in the presence of serum” value with S. aureus ATCC29213 (S. aureus, human serum) turned out to be 8 fold. For the same compound, the efficacy in patients entry in series [2] is on record as “marked efficacy”. The “efficacy in animal models of S. aureus infections” value in the series on S. aureus is “marked efficacy”. Besides, the accumulation entry with E. coli MG1655 was “no statistically significant accumulation over negative controls”.
